Experiment [1] has as its target T1, human JAK1 (a.a. 837-1142) (Homo sapiens, UniProt P23458).
T1 construct: human JAK1 (a.a. 837-1142); His tag (N); made in house; host or cells: insect cells (baculovirus)
Description: In vitro JAK kinase assay (HTRF), JAK1. The class given is biochemical. Conditions: catalytic domain, ATP 90 μM, 500 nM peptide, room temperature 1 hr. As to the method:
(§1) Compounds herein were tested for inhibitory activity of JAK targets according to the following in vitro assay described in Park et al., Analytical Biochemistry 1999, 269, 94-104. The catalytic domains of human JAK1 (a.a. 837-1142), JAK2 (a.a. 828-1132) and JAK3 (a.a. 781-1124) with an N-terminal His tag were expressed using baculovirus in insect cells and purified. The catalytic activity of JAK1, JAK2 or JAK3 was assayed by measuring the phosphorylation of a biotinylated peptide. The phosphorylated peptide was detected by homogenous time resolved fluorescence (HTRF). IC50s of compounds were measured for each kinase in the reactions that contain the enzyme, ATP and 500 nM peptide in 50 mM Tris (pH 7.8) buffer with 100 mM NaCl, 5 mM DTT, and 0.1 mg/mL (0.01%) BSA. The ATP concentration in the reactions was 90 μM for JAK1, 30 μM for JAK2 and 3 μM for JAK3. Reactions were carried out at room temperature for 1 hr and then stopped with 20 μL 45 mM EDTA, 300 nM SA-APC, 6 nM Eu-Py20 in assay buffer (Perkin Elmer, Boston, Mass.). Binding to the Europium labeled antibody took place for 40 minutes and HTRF signal was measured on a Fusion plate reader (Perkin Elmer, Boston, Mass.).
Background: In TR-FRET formats the signal depends on donor and acceptor labels being close together.

Another experiment has as its target T2, JAK2 (a.a. 828-1132) (Homo sapiens, UniProt O60674).
T2 construct: JAK2 (a.a. 828-1132); His tag (N); made in house; host or cells: insect cells (baculovirus)
Description: In vitro JAK kinase assay (HTRF), JAK2. The class given is biochemical. Conditions: catalytic domain, ATP 30 μM, 500 nM peptide, room temperature 1 hr. As for the experimental part: as §1

Each structure is given as a SMILES string. Where a name gives a salt, the structure may show the parent alone.

T1 sequence (P23458 849-1154): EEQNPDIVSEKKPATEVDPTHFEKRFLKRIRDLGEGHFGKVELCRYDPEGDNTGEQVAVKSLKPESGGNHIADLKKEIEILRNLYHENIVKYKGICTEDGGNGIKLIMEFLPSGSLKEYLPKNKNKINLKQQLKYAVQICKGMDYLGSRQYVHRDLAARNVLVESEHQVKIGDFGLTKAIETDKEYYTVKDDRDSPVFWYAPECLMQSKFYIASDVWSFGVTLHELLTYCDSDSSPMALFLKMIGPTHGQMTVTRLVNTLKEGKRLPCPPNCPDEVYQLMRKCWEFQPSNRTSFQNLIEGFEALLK
T2 sequence (O60674 828-1132): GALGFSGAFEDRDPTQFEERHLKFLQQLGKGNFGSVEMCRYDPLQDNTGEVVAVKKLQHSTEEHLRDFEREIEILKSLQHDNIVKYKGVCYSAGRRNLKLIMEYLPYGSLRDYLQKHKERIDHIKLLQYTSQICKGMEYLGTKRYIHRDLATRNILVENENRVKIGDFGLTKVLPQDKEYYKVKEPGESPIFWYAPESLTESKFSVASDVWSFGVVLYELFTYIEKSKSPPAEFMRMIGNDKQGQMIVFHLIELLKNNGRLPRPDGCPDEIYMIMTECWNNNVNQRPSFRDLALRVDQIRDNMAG

Turning to `N#CCC(C1CCC1)n1cc(-c2ncnc3[nH]ccc23)cn1` (single isomer, unassigned) [Example 1, (R or S)-3-Cyclobutyl-3-[4-(7H-pyrrolo[2,3-d]pyrimidin-4-yl)-1H-pyrazol-1-yl]propanenitrile], the values for the IC50 (in experiment [1]; at JAK2 (a.a. 828-1132)) were < 2 nM and < 1 nM, respectively.

As for `C[C@H]1C[C@H](C(CC#N)n2cc(-c3ncnc4[nH]ccc34)cn2)C1` (single isomer, unassigned) [Example 2, (3R or 3S)-3-(4-(7H-Pyrrolo[2,3-d]pyrimidin-4-yl)-1H-pyrazol-1-yl)-3-((trans)-3-methylcyclobutyl)propanenitrile phosphoric acid salt], the half-maximal inhibitory concentration (IC50) is < 2 nM in experiment [1] and < 1 nM against JAK2 (a.a. 828-1132).

Consider `C[C@H]1C[C@@H](C(CC#N)n2cc(-c3ncnc4[nH]ccc34)cn2)C1` (single isomer, unassigned) [Example 3, (3R or 3S)-3-(4-(7H-Pyrrolo[2,3-d]pyrimidin-4-yl)-1H-pyrazol-1-yl)-3-((cis)-3-methylcyclobutyl)-propanenitrile phosphoric acid salt], for which the half-inhibitory concentration (IC50) in experiment [1] is < 2 nM; at JAK2 (a.a. 828-1132), < 1 nM.

Broadly, the IC50 is the concentration that gives 50% inhibition. Read a high IC50 as a need for much substance.

Values taken from patent US20150087662A1, “CYCLOBUTANE AND METHYLCYCLOBUTANE DERIVATIVES AS JANUS KINASE INHIBITORS” (Incyte Corporation, priority 2010, published 2015).
